As usually defined, the IC50 is the concentration at which inhibition is half-maximal.

Structures are written as SMILES. “Also recorded” adds a separate entry of the source. Read-outs that look alike come from different tables or passages of the source.

The conditions of data set [1]: comparison Table 5; prior art compound; cited from earlier work.
The subject of a further data set is cancer cell lines. Conditions: comparison Table 5; prior art compound; cited from earlier work.
Data set [2] can be described thus: In vitro anti-proliferation of commercial G8HQ. Type of data set: cell-based. On the procedure: The present inventors obtained a commercial sample of G8HQ and tested it in vitro under conditions with copper added and found a possible reading of >500 uM IC 50, indicating no anti-proliferative activity, but such examination was cursory and not conclusive. Of further relevance, Oliveri 2012 designed an O-linked glucose adducts to the 8-hydroxy position of both 8HQ and CQ (FIG. 17). The resulting pro-drug form as expected abrogated the copper binding and eliminated the anti-cancer activity. […] The authors reasoned that the glucose adduct would improve solubility, and the glucose receptors over-populated on the surface of cancer cells. The anaerobic metabolism and high dependence on glucose that characterizes most cancers is a phenomenon known as the “Warburg Effect”.

For data set [3] the following is noted: comparison Table 5; prior art compound; cited from earlier work. The source holds these as a separate data set.
In another data set the test system is RIF tumor. Conditions: cited from earlier work.
A further data set relates to PANC-1 cells. Briefly: In vitro anti-proliferation (CellTiter-Glo, 72 hr), PANC-1. Type of data set: cell-based. Conditions: Homo sapiens, PANC-1, 72 h, 72 hr. As for the experimental part: (§1) Commercially available 8HQ and freshly synthesized G2-8HQ were prepared for in vitro anti-proliferative studies against the following cell lines with and without the presence of 10 μM Cu(+2): (1) A549: […]; (2) BT-549: epithelial cells from ductal tumor; (3) DU-145: human prostate cancer; (4) PANC-1: pancreatic cancer; (5) SU.86.86: a new adoptive pancreatic cell for immunotherapy studies; (6) RL: non-Hodgkin's lymphoma; (7) LnCAP, Prostate cancer cell line; (8) A431, a squamous cell carcinoma line; and (9) UACC-62 a malignant melanoma cell line.
(§2) With regard to the study protocol used, the objective was to conduct a study of the cytotoxicity of W1469 against several cancer cell lines. In the study protocol, preparations for the A549 (Lung) cell line screen are given as an example. The following materials were used: (1) FBS (2) RPMI-1640 medium supplemented with 10% FBS:’ and (3) A549 Cells. The four samples tested are referred to as Items 1-4 below and were placed at 4 °C upon arrival. These four samples were as follows: • Item 1: Tube A (W1469) (500 uM when FBS added) • Item 2: Tube B (W1469g) (1000 uM when FBS added) • Item 3: Tube C (W1469) • Item 4: Tube D (W1469g)
(§3) Add 50 μL of above 2× stocks to appropriate wells to expose appropriate cells to the final dilutions of samples. Add 50 μL media to media and cell control wells and 50 μL media mix to vehicle control wells. Cells are exposed for 72 hr. Following a 72 hr exposure to Sample, perform a CTG assay on all remaining plates.
(§4) At the end of the 72 hr exposure period, remove plates for CellTiter-Glo assay from 37 °C, 5% CO2 incubator and place on the bench at room temperature for 30 mins. Add 100 μL CellTiter-Glo reagent, mix for 2 mins, followed by a further 10 min incubation at room temperature. Record luminescence. Tables showing the resulting plate layouts are included below/
On the technique in general: ATP-based viability assays read luminescence as a measure of living cells.

In the next data set the test system is DU-145 cells. As to the kind of experiment: In vitro anti-proliferation (CellTiter-Glo, 72 hr), DU-145. Type of data set: cell-based, human. The following applies: Homo sapiens, DU-145, 72 h, 72 hr, read-out: IC50. On the procedure: as §1, §2, §3, §4
For data set [4], the system named is A2780, A549 and MDA-MB-231 cells. Conditions: cited from earlier work; for cytotoxicity change with addition of Cu^+2: addition of Cu^+2 to the media.
For another data set, the system named is SU.86.86 cells. Briefly: In vitro anti-proliferation (CellTiter-Glo, 72 hr), SU.86.86. Format: cell-based. The following applies: Homo sapiens, SU.86.86, 72 h, 72 hr, read-out: IC50. As for the experimental part: as §1, §2, §3, §4
The subject of a further data set is BT-549 cells. As to the kind of experiment: In vitro anti-proliferation (CellTiter-Glo, 72 hr), BT-549. Type of data set: cell-based. The following applies: Homo sapiens, BT-549, 72 h, 72 hr, read-out: IC50. On the procedure: as §1, §2, §3, §4
Another data set concerns RL cells. As to the kind of experiment: In vitro anti-proliferation (CellTiter-Glo, 72 hr), RL. Conditions: for IC50: 72 hr, read-out: IC50. Format: cell-based. On the procedure:
as §1, §2, §3, §4

In a further data set the test system is A549 cells. Briefly: In vitro anti-proliferation (CellTiter-Glo, 72 hr), A549. The following applies: Homo sapiens, A549, 72 h, 72 hr. Type of data set: cell-based, human. On the procedure:
as §1, §2
Items 1 and 2 are sterile ready for the addition of 1 ml of sterile FBS. Final concentrations after addition of 1 ml: 500 μM for Tube A and 1000 μM for Tube B. Items 3 and 4 are described further below. In the protocol, media containing 10% FBS and 20 μM CuCl2 are used in Tubes C and D only. A and B are serially diluted in media with 10% FBS and no added copper.
The protocol method proceeds as follows:
Seed 2, 96-well plates of A549 cells with 5,000 cells per well in a total volume of 50 μL per well. Leave overnight. See plate layout below for which wells to seed with 100 μL of media for media control. The following day, cells are exposed to compounds as described below.
For Items 1 & 2, to make the 500 μM and 1000 μM Stocks of samples 1 and 2 (W1469 and W1469g): Add 1 ml of sterile FBS to each Tube A and Tube B, swirl to mix.
To make appropriate 2× final dilutions of sample 1, Tube A (W1469), the following amounts are used: • 500 μM: 10 mL as supplied • 100 μM: 2 mL 500 μM Sample+8 mL media • 30 μM: 3 mL 100 μM Sample+7 mL media • 10 μM: 3 mL 30 μM Sample+6 mL media • 3 μM: 3 mL 10 μM Sample+7 mL media • 1 μM: 3 mL 3 μM Sample+6 mL media • 0.3 μM: 3 mL 1 μM Sample+7 mL media • 0.1 μM: 3 mL 0.3 μM Sample+6 mL media
To make appropriate 2× final dilutions of sample 2, Tube B (W1469g), the following amounts are used: • 1000 μM: 10 mL as supplied • 300 μM: 3 mL 1000 μM Sample+7 mL media • 100 μM: 3 mL 300 μM Sample+6 mL media • 30 μM: 3 mL 100 μM Sample+7 mL media • 10 μM: 3 mL 30 μM Sample+6 mL media • 3 μM: 3 mL 10 μM Sample+7 mL media • 1 μM: 3 mL 3 μM Sample+6 mL media • 0.3 μM: 3 mL 1 μM Sample+7 mL media
For Items 3 & 4, the following protocol was used to make 1000 uM Stocks of samples 3 and 4 (W1469 and W1469g): • 1: Dissolve 3.37 mg W1469 and excipient (Tube C) in 1 ml RPMI medium without added FBS and copper and swirl briefly until completely dissolved. Add 9 ml of RPMI media containing 10% FBS and 20 uM copper. Swirl to mix. Sterile filter the 10 ml with provided syringes and filters. This is now the 1000 μM stock solution W1469 ready for screening • 2: Dissolve 3.2 mg W1469g and excipient (Tube D) in 1 ml RPMI medium without added FBS and copper and swirl briefly until completely dissolved. […] This is now the 1000 μM stock solution W1469g ready for screening. […]

For data set [5] the following is noted: topical treatment of skin cancer; cited from earlier work.
The conditions of data set [6]: iodinated drug; cited from earlier work.
For data set [7] the following is noted: Japanese population, 1970's; cited from earlier work.
Another data set relates to tumor cells. Conditions: addition of docosahexaenoic acid (DHA); Ding 2006; cited from earlier work.
The test system of a further data set is cancer cells. Conditions: Zhai 2010; Oliveri 2012; cited from earlier work.
For data set [8], the system named is viral attachment to ACE receptor. The following applies: COVID 19; copper chelation not required; cited from earlier work.
[9] abbreviates: +Cu (10 μM), G2-8HQ values based on MW of apo form (337).

For the compound `O=C(O)[C@H]1O[C@@H](Oc2cccc3cccnc23)[C@H](O)[C@@H](O)[C@@H]1O` [G8HQ, 8-quinolinyl beta-D-glucopyranosiduronic acid], in data set [1], the Complexes w/copper result was “No”. In addition, in the data set on cancer cell lines, the “Active w/o Cu (cancer)” value is listed as “No”. In data set [2] (in vitro, without acidification), the activity entry is given as “no activity”. This compound gave an IC50 in [2] (with copper added, cursory and not conclusive) of more than 500 µM. The “Solubility of Cu Complex/aqueous” value in [3] is reported as “None”. Besides, in the data set on RIF tumor (after acidification of tumors by hyperglycemia, mice), the tumor uptake entry is “rapid and significantly increased”. The retention entry in the data set with RIF tumor (after tumor acidification, mice) was “prolonged retention in tumor and the colon over all other tissues”. Also, the “tumor or general tissue partitioning” value with RIF tumor (initial animal experiments, no acidification, mice) was “no significant tumor or general tissue partitioning”. Moreover, the “metabolic clearance / elimination time” value with RIF tumor (mice, post injection, listed as 8GHQ) is 3 h.

For `Oc1cccc2cccnc12` [8HQ, 8-hydroxyquinoline, reference compound], the IC50 in the data set on PANC-1 cells (setting [9]) was 11.2 µM; in the data set on PANC-1 cells (−Cu), 9.3 µM; in the data set with DU-145 cells (setting [9]), 11.6 µM; in the data set on DU-145 cells (−Cu), 11.6 µM; in the data set on SU.86.86 cells (setting [9]), 46 µM; with SU.86.86 cells (−Cu), more than 50 µM. Further, the half-maximal inhibitory concentration (IC50) with BT-549 cells (setting [9]) came out at 24.5 µM; in the data set on BT-549 cells (−Cu), 9.9 µM; in the data set on RL cells (setting [9]), 0.07 µM; with RL cells (Homo sapiens, RL, 72 h, +Cu (10 μM), G2-8HQ values based on MW of apo form (337)) it was 0.06 µM; in the data set with RL cells (Homo sapiens, RL, 72 h, −Cu), 0.62 µM; with A549 cells (setting [9]) it was 29 µM. The 50% inhibitory concentration (IC50) in the data set on A549 cells (−Cu) was 12.7 µM. Besides, the “cytotoxicity change with addition of Cu^+2” value in data set [4] is given as “significantly increased the cytotoxicity”. The “activity relative to CQ” value in data set [4] (unmodified 8HQ vs CQ) is reported as 9 to 27 ×. Also, the solubility entry in “Solubility” (DMSO) is recorded as “soluble”; in “Solubility” (water / aqueous), “sparingly soluble”. Moreover, in the data set with RL cells (RL, +Cu^+2 (10 or 20 μM) vs −Cu), the “increase of activity/cytotoxicity in presence of copper” value is 9 fold. In addition, the “tissue levels of 8-OHQ” value in the data set on RIF tumor (all tissues, 2.0 to 24 hr after glucuronide injection, n = 3) is on record as “These data points, with n = 3 animals, also failed to show significant tissue levels of 8-OHQ”.

For `CC(C)Cn1cnc2c(N)nc3ccccc3c21` [Zyclara, Alara (Imiquimod), Imiquimod], in data set [5], the “Side Effects” value is listed as “headache or backpain, Diarrhea; also recorded: Redness, bleeding or flaking skin, swelling,; also recorded: blistering, sting or pain. Fatigue or tiredness,”.

Regarding `O=C(O)[C@H]1O[C@@H](Oc2cccc3c(I)ccnc23)[C@H](O)[C@@H](O)[C@@H]1O` [4-iodo, 8-hydroxy beta-D-glucopyranosiduronic acid], in data set [6], the excretion entry was “mainly urinary”.

`NCC(=O)CCC(=O)O` [Aminolaevulinic acid (Levulan), Aminolaevulinic acid]: in data set [5], the “Side Effects” value is recorded as “Burning, Itching or Tingling, Rash or redness; also recorded: Light sensitivity (bright lights/sunshine)”.

For the compound `Oc1c(I)cc(Cl)c2cccnc12` [CQ, 5-chloro-7-iodo-8-hydroxyquinoline], in [7], the serious side effect entry is listed as “CQ-associated subacute myelo-optic neuropathy”. Moreover, in data set [4], the “cytotoxicity change with addition of Cu^+2” value is given as “significantly increased the cytotoxicity”. Also, the “anticancer activity with omega fatty acids” value in the data set with tumor cells is recorded as “increase synergistically”. For the same compound, the “effect of copper on anti-cancer activity” value in the data set with cancer cells is “enhancer or prerequisite of the anti-cancer activity”. In addition, the antiviral activity mechanism result in data set [8] is “blocking viral attachment to ACE receptor”.

For `O=c1[nH]cc(F)c(=O)[nH]1` [Fluorouracil], the “Side Effects” value in data set [5] was “tender skin, serious allergic reaction”.

Take `O=C(O)[C@H]1O[C@@H](Oc2cccc3cccnc23)[C@H](O)[C@@H](O)[C@@H]1O` [GA8HQ]: the Complexes w/copper entry in data set [1] is given as “No”. Moreover, in the data set with cancer cell lines, the “Active w/o Cu (cancer)” value is recorded as “No”. Further, the “Solubility of Cu Complex/aqueous” value in data set [3] is reported as “None, (8HQ poor)”.
